Data as given in patent publication US20180368410A1, “MICROBIOCIDAL OXADIAZOLE DERIVATIVES” (SYNGENTA PARTICIPATIONS AG, priority 2015, published 2018).

Assays:
[1] = test system: Glomerella Lacenarium (Colletotrichum lacenarium); experiment: Glomerella lagenarium (Colletotrichum lagenarium) liquid culture / cucumber / preventative (anthracnose); assay type: cell-based; details: 20 ppm in the applied formulation, liquid culture in PDB, 24° C., inhibition of growth measured photometrically 3 to 4 days after application, vs untreated control, read-out: disease control
Experimental: Mycelia fragments or conidia suspensions of a fungus prepared either freshly from liquid cultures of the fungus or from cryogenic storage, are directly mixed into nutrient broth. DMSO solutions of the test compound (max. 10 mg/ml) are diluted with 0.025% Tween20 by a factor of 50 and 10 μl of this solution is pipetted into a microtiter plate (96-well format). The nutrient broth containing the fungal spores/mycelia fragments is then added to give an end concentration of the tested compound. The test plates are incubated in the dark at 24° C. and 96% relative humidity. The inhibition of fungal growth is determined photometrically after 2 to 7 days, depending on the pathosystem, and percent antifungal activity relative to the untreated check is calculated.
Conidia of the fungus from cryogenic storage are directly mixed into nutrient broth (PDB—potato dextrose broth). After placing a (DMSO) solution of test compound into a microtiter plate (96-well format), the nutrient broth containing the fungal spores is added. The test plates are incubated at 24° C. and the inhibition of growth is measured photometrically 3 to 4 days after application.
The following compounds at 20 ppm in the applied formulation give at least 80% disease control in this test when compared to untreated control under the same conditions, which show extensive disease development.

[2] = test system: Puccinia recondita f. Sp. Tritici; experiment: Puccinia recondita f. sp. tritici / wheat / leaf disc preventative (brown rust); assay type: in vivo, Puccinia recondita f. sp. tritici on wheat cv. Kanzler; details: foliar, 200 ppm in the applied formulation, inoculated 1 day after application, assessed 7 to 9 days after application, vs untreated control leaf disks, read-out: disease control
Experimental: Leaf disks or leaf segments of various plant species are cut from plants grown in a greenhouse. The cut leaf disks or segments are placed in multiwell plates (24-well format) onto water agar. The leaf disks are sprayed with a test solution before (preventative) or after (curative) inoculation. Compounds to be tested are prepared as DMSO solutions (max. 10 mg/ml) which are diluted to the appropriate concentration with 0.025% Tween20 just before spraying. The inoculated leaf disks or segments are incubated under defined conditions (temperature, relative humidity, light, etc.) according to the respective test system. A single evaluation of disease level is carried out 3 to 14 days after inoculation, depending on the pathosystem. Percent disease control relative to the untreated check leaf disks or segments is then calculated. Wheat leaf segments cv. Kanzler were placed on agar in multiwell plates (24-well format) and sprayed with the formulated test compound diluted in water. The leaf disks were inoculated with a spore suspension of the fungus 1 day after application. The inoculated leaf segments were incubated at 19′C and 75% relative humidity (rh) under a light regime of 12 hours light/12 hours darkness in a climate cabinet and the activity of a compound was assessed as percent disease control compared to untreated when an appropriate level of disease damage appears in untreated check leaf segments (7 to 9 days after application). The following compounds at 200 ppm in the applied formulation give at least 80% disease control in this test when compared to untreated control leaf disks under the same conditions, which show extensive disease development.

Row | Compound | inhibition of growth at 20 ppm [1] [%] | pest or weed control at 200 ppm [2] [%]
1 | O=C(NCc1ccc(-c2noc(C(F)(F)F)n2)cc1C(F)(F)F)C1CCCO1 (centres unmarked) [Compound 1.52, N-[[2-(trifluoromethyl)-4-[5-(trifluoromethyl)-1,2,4-oxadiazol-3-yl]phenyl]methyl]tetrahydrofuran-2-carboxamide] | ≥ 80 | 
2 | O=C(NCc1ccc(-c2noc(C(F)(F)F)n2)cc1Cl)C1CCOC1 (centres unmarked) [Compound 1.82, N-[[2-chloro-4-[5-(trifluoromethyl)-1,2,4-oxadiazol-3-yl]phenyl]methyl] tetrahydrofuran-3-carboxamide] | ≥ 80 | 
3 | CC1(C(=O)NCc2ccc(-c3noc(C(F)(F)F)n3)cc2Cl)COC1 [Compound 1.84, N-[[2-chloro-4-[5-(trifluoromethyl)-1,2,4-oxadiazol-3-yl]phenyl]methyl]-3-methyl-oxetane-3-carboxamide] | ≥ 80 | ≥ 80
4 | COc1ccc(C2(C(=O)NCc3ccc(-c4noc(C(F)(F)F)n4)cc3)CC2)cc1 [Compound 1.38, 1-(4-methoxyphenyl)-N-[[4-[5-(trifluoromethyl)-1,2,4-oxadiazol-3-yl]phenyl]methyl] cyclopropanecarboxamide] | ≥ 80 | ≥ 80
5 | CC1(C(=O)NCc2ccc(-c3noc(C(F)(F)F)n3)cc2Cl)CC1 [Compound 1.79, N-[[2-chloro-4-[5-(trifluoromethyl)-1,2,4-oxadiazol-3-yl]phenyl]methyl]-1-methyl-cyclopropanecarboxamide] | ≥ 80 | 
6 | O=C(NCc1ccc(-c2noc(C(F)(F)F)n2)cc1Cl)C1CC1 [Compound 1.81, N-[[2-chloro-4-[5-(trifluoromethyl)-1,2,4-oxadiazol-3-yl]phenyl]methyl] cyclopropanecarboxamide] | ≥ 80 | 
7 | COc1cc(-c2noc(C(F)(F)F)n2)ccc1CNC(=O)C1CCCO1 (centres unmarked) [Compound 1.51, N-[[2-methoxy-4-[5-(trifluoromethyl)-1,2,4-oxadiazol-3-yl]phenyl]methyl]tetrahydrofuran-2-carboxamide] | ≥ 80 | 
8 | O=C(NCc1ccc(-c2noc(C(F)(F)F)n2)cc1F)c1ccccc1Cl [Compound 1.48, 2-chloro-N-[[2-fluoro-4-[5-(trifluoromethyl)-1,2,4-oxadiazol-3-yl]phenyl]methyl]benzamide] | ≥ 80 | ≥ 80
9 | O=C(NCc1ccc(-c2noc(C(F)(F)F)n2)cc1)c1c(Cl)cccc1Cl [Compound 1.42, 2,6-dichloro-N-[[4-[5-(trifluoromethyl)-1,2,4-oxadiazol-3-yl]phenyl]methyl]benzamide] |  | ≥ 80
10 | O=C(NCc1ccc(-c2noc(C(F)(F)F)n2)cc1)c1ccccc1C(F)(F)F [Compound 1.43, 2-(trifluoromethyl)-N-[[4-[5-(trifluoromethyl)-1,2,4-oxadiazol-3-yl]phenyl]methyl]benzamide] |  | ≥ 80
11 | O=C(CC1CC1)NCc1ccc(-c2noc(C(F)(F)F)n2)cc1Cl [Compound 1.74, N-[[2-chloro-4-[5-(trifluoromethyl)-1,2,4-oxadiazol-3-yl]phenyl]methyl]-2-cyclopropyl-acetamide] | ≥ 80 | 
